Key:
[1] = tested on: purified endothelial cells from the brains of aged C57BL/6 mice; assay: Microbulk qPCR of endothelial genes; format: in vivo, mouse; conditions: 1 month bid P.O., 1 mg/kg Compound 1 or 2.5 mg/kg SC57461A
Method: (§1) Downregulation of the detrimental genes Bsg, Gbp4, and CXCL12 in purified endothelial cells from the brains of mice treated with LTA4H inhibitors Compound 1 or SC57461A were compared to those of vehicle treated mice. Gene expression was measured by qPCR from 500 sorted endothelial cells and was normalized to GAPDH control.
Aged C57BL/6 mice (21 months of age) were treated for 1 month bid P.O. with vehicle, 1 mg/kg Compound 1, or 2.5 mg/kg SC57461A (n=3 mice per treatment group). One cortical cap (cortex and hippocampus) from each mouse was isolated and cells were dissociated using Miltenyi Neutral Dissociation Kit (#130-092-628). Cells were sorted using Sony Multi-Application Cell Sorter MA900 into clean, RNAase free 200 uL PCR strip tube with 5 uL RNAlater at a concentration of 500 cells per tube. RNA was isolated follow kit protocol for Qiagen RNeasy Micro Kit (#74004). cDNA was synthesized using SuperScript III Kit Protocol and qPCR assays were run using TaqMan or SYBR green primers.
as §1, with “beneficial gene, Plat,” for “detrimental genes Bsg, Gbp4, and CXCL12”

aged C57BL/6 mice [2] = assay: Unbiased single cell RNA sequencing of brain tissue; format: in vivo, mouse; conditions: 2.5 mg/kg bid P.O. 1 month
Method: Aged C57BL/6 mice (21 months of age) were treated for 1 month bid P.O. with vehicle or 2.5 mg/kg SC57461A (n=3 mice per treatment group). One cortical cap (cortex and hippocampus) from each mouse was isolated and cells were dissociated and sorted using Sony Multi-Application Cell Sorter MA900. Unbiased RNA sequencing from single brain cells were analyzed according to techniques described previously (Yousf H, et al., Bio Protoc., 8(22):e3091 (2018), which is herein incorporated by reference in its entirety).

[3] = tested on: brain endothelial cells of aged C57BL/6 mice; assay: Single cell RNA sequencing of brain endothelial cells (BECs); format: in vivo, mouse
Method: Male C57BL/6 mice aged 20-21 months were treated with Vehicle or SC-57461A commercially available LTA4H inhibitor. The mice were dosed with SC-57461A at 2.5 mg/kg PO bid for one month. Mice were anesthetized and blood and tissues were collected for further analysis. Blood was collected via cardiac puncture in syringes pre-filled with Heparin. Brains were collected following ACSF perfusion and processed for single cell RNA sequencing of labeled endothelial cells.
Brain endothelial cells (BECs) were sorted, sequenced, and analyzed based on techniques known to those having ordinary skill in the art. […] Gates were determined to separate CD31-positive, CD11b-negative endothelial cells from CD11b-positive, CD31-negative microglia. […]
Aged C57BL/6 mice (21 months of age) were treated for 1 month bid P.O. with vehicle, 1 mg/kg Compound 1, or 2.5 mg/kg SC57461A (n=3 mice per treatment group). Brain endothelial cells were sorted, sequenced and analyzed as described in Example 12 (See Chen M B, et al., Cell Rep, 30(13):4418-32e4 (2020) which is herein incorporated by reference in its entirety).
GO terms are generated using the g:Profiler Web server (https://bitt.cs.ut.ee/gprofiler) to analyze differential regulated gene lists. Reported are the top 20 gene ontology (GO terms) terms from the biological process category, sorted by significance as determined by P-value. […]

[4] = tested on: hippocampal neurons of aged C57BL/6 mice; assay: Single cell RNA sequencing of NeuN+ hippocampal nuclei (CA1, DG); format: in vivo, mouse
Method: Aged C57BL/6 mice (21 months of age) were treated for 1 month bid po with vehicle, 1 mg/kg Compound 1, or 2.5 mg/kg SC57461A (n=3 mice per treatment group). NucSeq For Mouse Brain Tissue protocol from 10× Genomics was used to isolate mouse hippocampus nuclei. Approximately 65 mg of brain tissue were used per treatment. Nonidet P40 was used to lyse cell walls and isolated nuclei were stained with Draq5 and NeuN antibodies for FACS sorting. Approximately 5,000 nuclei were collected for each sample. Eight samples were collected for each treatment for a total of 40,000 nuclei per treatment. These samples were prepped for sequencing using the 10× Genomics Chromium Next GEM kit.
GO terms are generated using the g:Profiler Web server (https://bitt.cs.ut.ee/gprofiler) to analyze differential regulated gene lists. Reported are the top 20 gene ontology (GO terms) terms from the biological process category, sorted by significance as determined by P-value. This list was filtered to report significant GO terms that include less than 1000 genes.

aged C57BL/6 mice [5] = assay: Long term potentiation (LTP) in hippocampal slices; format: in vivo, mouse; conditions: 1 month bid po, 1 mg/kg Compound 1 or 2.5 mg/kg SC57461A
Method: Aged C57BL/6 mice (21 months of age) were treated for 1 month bid po with vehicle, 1 mg/kg Compound 1, or 2.5 mg/kg SC57461A (n=5 mice per treatment group). Electrophysical recordings were performed at AfaSci, Inc, as follows. Animals were deeply anesthetized with halothane and decapitated. The brain was quickly taken out and placed into ice-cold artificial cerebrospinal fluid (ACSF) that was continuously bubbled with 5% CO2/95% O2. The ACSF was composed of (in mM) NaCl 130.0, KCl 2.5, KH2PO4 1.2, CaCl2 2.4, MgSO4 1.3, NaHCO326.0 and glucose 10.0 (pH 7.4). Hippocampal slices (400 μm thick) were prepared using a tissue slicer (Stoelting Co., IL) and incubated at room temperature in continuously oxygenated ACSF for at least 1 h before being recorded with submerged mode in chamber (Harvard Apparatus) at room temperature. Data were collected with an Axopatch-2B amplifier and pClamp 10.4 program (Axon Instruments) through digidata 1320A.
Field population spike (PS) was recorded using glass microelectrode filled with ACSF (resistance: 1-3 MO). Biphasic current pulses (0.2 ms duration for one phase, 0.4 ms in total) were delivered in 10 s intervals through a concentric bipolar stimulating electrode (FHC, Inc.). […] To record field population spikes in dorsal dentate gyrus, the stimulating electrode was placed on the hippocampal fissure to stimulate the bypassing perforant pathway fibers and the recording electrode was placed on inner part of granular cell layer. To record field EPSPs in DG, the stimulating electrode was placed on the hippocampal fissure to stimulate the bypassing perforant pathway fibers and the recording electrode was placed on inner part of granular cell layer. Slices were recorded within 8 hours after dissection. Titanic stimulation consisted of 2 trains of 100 pulses (0.4 ms bipolar pulse duration, 100 Hz) lasting for 1 second with 5 seconds of interval. The slope of EPSP and amplitude of population spike were measured from the initial phase of negative wave with Clampfit10.4. Each data point was measured with average of 3 consecutive traces. LTP was plotted as the percentage to baseline following high frequency stimulation (mean±SEM).

aged mice = assay: CA1 synapse density by histology; format: in vivo, mouse; conditions: preliminary data, pre- and post-synaptic protein staining
mice = conditions: previous studies; cited from earlier work
[6] = 1 month bid po, 1 mg/kg Compound 1 or 2.5 mg/kg SC57461A

CN(CCCOc1ccc(Cc2ccccc2)cc1)CCC(=O)O.Cl [SC-57461A, reference compound]
Bsg gene expression [1]: down regulation of Bsg gene expression
CXCL12 gene expression [1]: down regulation of CXCL12 gene expression
Gpb4 gene expression [1]: down regulation of Gpb4 gene expression
Plat gene expression [1]: up regulation of Plat gene expression
Biological Process GO terms, astrocytes (aged C57BL/6 mice [2]): changes to astrocytes
Biological Process GO terms, endothelial (aged C57BL/6 mice [2]): changes to endothelial
Biological Process GO terms, pericytes (aged C57BL/6 mice [2]): changes to pericyte
astrocyte gene changes (aged C57BL/6 mice [2]): many significant gene changes to astrocytes
endothelial cell gene changes (aged C57BL/6 mice [2]): many significant gene changes to brain endothelial cells
pericyte gene changes (aged C57BL/6 mice [2]): many significant gene changes to pericytes
Biological Process GO terms, BECs ([3]; 2.5 mg/kg PO bid one month): changes to the endothelial milieu
endothelial cell gene changes, enriched brain endothelial cells ([3]; 2.5 mg/kg bid P.O. 1 month): many significant gene changes to brain endothelial cells
CA1 neuronal gene changes [4, 6]: many significant gene changes to neurons in the CA1 region of the hippocampus
DG neuronal gene changes [4, 6]: many significant gene changes to neurons in the DG region of the hippocampus
Dcc gene expression in the dentate gyrus [4, 6]: not significantly impacted
Spock3 gene expression in the dentate gyrus [4, 6]: not significantly impacted
Biological Process GO terms, CA1 hippocampal neurons ([4]; long-term treatment): changes to synapses
Biological Process GO terms, DG hippocampal neurons ([4]; long-term treatment): changes to synapses
LTP, CA1 region of the hippocampus (aged C57BL/6 mice [5]): did not show the same LTP increase
LTP, DG region of the hippocampus (aged C57BL/6 mice [5]): did not show the same LTP increase
synapse density in the CA1 region of the hippocampus (aged mice): no trend in increased CA1 synapse density
memory domains improved (mice): only improved spatial memory
